ChEMBL document CHEMBL5360547 (Eur J Med Chem, 2023)

test system: Cortical neurone; test: Neuroprotective activity against oxygen glucose deprivation induced ischemic stroke model in primary C57BL/6J E14-17 mouse Cortical neurons assessed as increase in cell viability at 1 uM incubated for 24 hrs by CCK-8 assay (Rvb= 57.43 +/- 2.54 %); assay type: functional

Structure (SMILES)	Activity [%]
CN[C@@H]1CC[C@@H](c2ccc(Cl)c(Cl)c2)c2ccccc21 (racemic)	59.29
Cc1ccc(CN[C@@H]2CC[C@@H](c3ccc(Cl)c(Cl)c3)c3ccccc32)cc1 (relative stereo)	60.9
Clc1ccc([C@@H]2CC[C@@H](NCC3CCCCC3)c3ccccc32)cc1Cl (relative stereo)	64.56
Clc1ccc([C@@H]2CC[C@@H](NCCCCc3ccccc3)c3ccccc32)cc1Cl (relative stereo)	57.11
Clc1ccc([C@@H]2CC[C@@H](NC3CC3)c3ccccc32)cc1Cl (relative stereo)	62.49
CC(N[C@@H]1CC[C@@H](c2ccc(Cl)c(Cl)c2)c2ccccc21)c1ccccc1 (stereo partly drawn)	45.67
NCCCCN[C@@H]1CC[C@@H](c2ccc(Cl)c(Cl)c2)c2ccccc21 (relative stereo)	33.3
COc1cccc(CN[C@@H]2CC[C@@H](c3ccc(Cl)c(Cl)c3)c3ccccc32)c1 (relative stereo)	51.08
O=C(CCCCl)N[C@@H]1CC[C@@H](c2ccc(Cl)c(Cl)c2)c2ccccc21 (relative stereo)	63.86
Clc1ccc(CN[C@@H]2CC[C@@H](c3ccc(Cl)c(Cl)c3)c3ccccc32)cc1Cl	58.46
Clc1ccc([C@@H]2CC[C@@H](NCc3cccc4ccccc34)c3ccccc32)cc1Cl (relative stereo)	61.36
CCCCN[C@@H]1CC[C@@H](c2ccc(Cl)c(Cl)c2)c2ccccc21 (relative stereo)	54.27
CC(C)(C)OC(=O)N1CCN(CCN[C@@H]2CC[C@@H](c3ccc(Cl)c(Cl)c3)c3ccccc32)CC1 (relative stereo)	63.76
FC(F)(F)c1cccc(CN[C@@H]2CC[C@@H](c3ccc(Cl)c(Cl)c3)c3ccccc32)c1 (relative stereo)	65.74
N[C@@H]1CC[C@@H](c2ccc(Cl)c(Cl)c2)c2ccccc21 (relative stereo) [DASOTRALINE]	57.14
Clc1ccc([C@@H]2CC[C@@H](NCCc3c[nH]c4ccccc34)c3ccccc32)cc1Cl (relative stereo)	52.97
CCCN[C@@H]1CC[C@@H](c2ccc(Cl)c(Cl)c2)c2ccccc21 (relative stereo)	62.89

test system: Cortical neurone; test: Cytotoxicity against primary C57BL/6J E14-17 mouse Cortical neuron assessed as decrease in cell viability at 1 uM incubated for 24 hrs by CCK-8 assay relative to control; assay type: toxicity, cell-based

Structure (SMILES)	Activity [%]
CN[C@@H]1CC[C@@H](c2ccc(Cl)c(Cl)c2)c2ccccc21 (racemic)	94.5
Cc1ccc(CN[C@@H]2CC[C@@H](c3ccc(Cl)c(Cl)c3)c3ccccc32)cc1 (relative stereo)	92.92
Clc1ccc([C@@H]2CC[C@@H](NCC3CCCCC3)c3ccccc32)cc1Cl (relative stereo)	100.42
Clc1ccc([C@@H]2CC[C@@H](NCCCCc3ccccc3)c3ccccc32)cc1Cl (relative stereo)	98.28
Clc1ccc([C@@H]2CC[C@@H](NC3CC3)c3ccccc32)cc1Cl (relative stereo)	100.03
CC(N[C@@H]1CC[C@@H](c2ccc(Cl)c(Cl)c2)c2ccccc21)c1ccccc1 (stereo partly drawn)	98.48
NCCCCN[C@@H]1CC[C@@H](c2ccc(Cl)c(Cl)c2)c2ccccc21 (relative stereo)	90.11
COc1cccc(CN[C@@H]2CC[C@@H](c3ccc(Cl)c(Cl)c3)c3ccccc32)c1 (relative stereo)	95.52
O=C(CCCCl)N[C@@H]1CC[C@@H](c2ccc(Cl)c(Cl)c2)c2ccccc21 (relative stereo)	92.02
Clc1ccc(CN[C@@H]2CC[C@@H](c3ccc(Cl)c(Cl)c3)c3ccccc32)cc1Cl	101.08
Clc1ccc([C@@H]2CC[C@@H](NCc3cccc4ccccc34)c3ccccc32)cc1Cl (relative stereo)	95.27
CCCCN[C@@H]1CC[C@@H](c2ccc(Cl)c(Cl)c2)c2ccccc21 (relative stereo)	95.75
CC(C)(C)OC(=O)N1CCN(CCN[C@@H]2CC[C@@H](c3ccc(Cl)c(Cl)c3)c3ccccc32)CC1 (relative stereo)	100.27
FC(F)(F)c1cccc(CN[C@@H]2CC[C@@H](c3ccc(Cl)c(Cl)c3)c3ccccc32)c1 (relative stereo)	90.68
N[C@@H]1CC[C@@H](c2ccc(Cl)c(Cl)c2)c2ccccc21 (relative stereo) [DASOTRALINE]	99.05
Clc1ccc([C@@H]2CC[C@@H](NCCc3c[nH]c4ccccc34)c3ccccc32)cc1Cl (relative stereo)	104.13
CCCN[C@@H]1CC[C@@H](c2ccc(Cl)c(Cl)c2)c2ccccc21 (relative stereo)	96.43

test system: Cortical neurone; test: Cytotoxicity against primary C57BL/6J E14-17 mouse Cortical neuron assessed as decrease in cell viability at 10 uM incubated for 24 hrs by CCK-8 assay relative to control; assay type: toxicity, cell-based

Structure (SMILES)	Activity [%]
CN[C@@H]1CC[C@@H](c2ccc(Cl)c(Cl)c2)c2ccccc21 (racemic)	92.08
Cc1ccc(CN[C@@H]2CC[C@@H](c3ccc(Cl)c(Cl)c3)c3ccccc32)cc1 (relative stereo)	84.46
Clc1ccc([C@@H]2CC[C@@H](NCC3CCCCC3)c3ccccc32)cc1Cl (relative stereo)	103.51
Clc1ccc([C@@H]2CC[C@@H](NCCCCc3ccccc3)c3ccccc32)cc1Cl (relative stereo)	94.37
Clc1ccc([C@@H]2CC[C@@H](NC3CC3)c3ccccc32)cc1Cl (relative stereo)	109.93
CC(N[C@@H]1CC[C@@H](c2ccc(Cl)c(Cl)c2)c2ccccc21)c1ccccc1 (stereo partly drawn)	45.32
NCCCCN[C@@H]1CC[C@@H](c2ccc(Cl)c(Cl)c2)c2ccccc21 (relative stereo)	22.9
COc1cccc(CN[C@@H]2CC[C@@H](c3ccc(Cl)c(Cl)c3)c3ccccc32)c1 (relative stereo)	97.09
O=C(CCCCl)N[C@@H]1CC[C@@H](c2ccc(Cl)c(Cl)c2)c2ccccc21 (relative stereo)	84.35
Clc1ccc(CN[C@@H]2CC[C@@H](c3ccc(Cl)c(Cl)c3)c3ccccc32)cc1Cl	105.41
Clc1ccc([C@@H]2CC[C@@H](NCc3cccc4ccccc34)c3ccccc32)cc1Cl (relative stereo)	96.52
CCCCN[C@@H]1CC[C@@H](c2ccc(Cl)c(Cl)c2)c2ccccc21 (relative stereo)	94.94
CC(C)(C)OC(=O)N1CCN(CCN[C@@H]2CC[C@@H](c3ccc(Cl)c(Cl)c3)c3ccccc32)CC1 (relative stereo)	93.92
FC(F)(F)c1cccc(CN[C@@H]2CC[C@@H](c3ccc(Cl)c(Cl)c3)c3ccccc32)c1 (relative stereo)	85.87
N[C@@H]1CC[C@@H](c2ccc(Cl)c(Cl)c2)c2ccccc21 (relative stereo) [DASOTRALINE]	95.38
Clc1ccc([C@@H]2CC[C@@H](NCCc3c[nH]c4ccccc34)c3ccccc32)cc1Cl (relative stereo)	96.14
CCCN[C@@H]1CC[C@@H](c2ccc(Cl)c(Cl)c2)c2ccccc21 (relative stereo)	100.55

test system: Cortical neurone; test: Neuroprotective activity against oxygen glucose deprivation induced ischemic stroke model in primary C57BL/6J E14-17 mouse Cortical neurons assessed as increase in cell viability at 10 uM incubated for 24 hrs by CCK-8 assay (Rvb= 57.43 +/- 2.54 %); assay type: functional

Structure (SMILES)	Activity [%]
CN[C@@H]1CC[C@@H](c2ccc(Cl)c(Cl)c2)c2ccccc21 (racemic)	65.74
Cc1ccc(CN[C@@H]2CC[C@@H](c3ccc(Cl)c(Cl)c3)c3ccccc32)cc1 (relative stereo)	59.01
Clc1ccc([C@@H]2CC[C@@H](NCC3CCCCC3)c3ccccc32)cc1Cl (relative stereo)	62.02
Clc1ccc([C@@H]2CC[C@@H](NCCCCc3ccccc3)c3ccccc32)cc1Cl (relative stereo)	58.59
Clc1ccc([C@@H]2CC[C@@H](NC3CC3)c3ccccc32)cc1Cl (relative stereo)	66.66
CC(N[C@@H]1CC[C@@H](c2ccc(Cl)c(Cl)c2)c2ccccc21)c1ccccc1 (stereo partly drawn)	51.75
NCCCCN[C@@H]1CC[C@@H](c2ccc(Cl)c(Cl)c2)c2ccccc21 (relative stereo)	3.07
COc1cccc(CN[C@@H]2CC[C@@H](c3ccc(Cl)c(Cl)c3)c3ccccc32)c1 (relative stereo)	47.87
O=C(CCCCl)N[C@@H]1CC[C@@H](c2ccc(Cl)c(Cl)c2)c2ccccc21 (relative stereo)	58.31
Clc1ccc(CN[C@@H]2CC[C@@H](c3ccc(Cl)c(Cl)c3)c3ccccc32)cc1Cl	55.64
Clc1ccc([C@@H]2CC[C@@H](NCc3cccc4ccccc34)c3ccccc32)cc1Cl (relative stereo)	65.01
CCCCN[C@@H]1CC[C@@H](c2ccc(Cl)c(Cl)c2)c2ccccc21 (relative stereo)	50.99
CC(C)(C)OC(=O)N1CCN(CCN[C@@H]2CC[C@@H](c3ccc(Cl)c(Cl)c3)c3ccccc32)CC1 (relative stereo)	57.97
FC(F)(F)c1cccc(CN[C@@H]2CC[C@@H](c3ccc(Cl)c(Cl)c3)c3ccccc32)c1 (relative stereo)	59
N[C@@H]1CC[C@@H](c2ccc(Cl)c(Cl)c2)c2ccccc21 (relative stereo) [DASOTRALINE]	56.94
Clc1ccc([C@@H]2CC[C@@H](NCCc3c[nH]c4ccccc34)c3ccccc32)cc1Cl (relative stereo)	59.42
CCCN[C@@H]1CC[C@@H](c2ccc(Cl)c(Cl)c2)c2ccccc21 (relative stereo)	55.53
